Data published in the supplement of paper PMC10307832.

What was measured:
Assay in all cases: relative viability (nuclei count vs DMSO), 5 days (fraction); higher = more cells survive
[1] = compound: CCN(CCO)CCCC(C)Nc1ccnc2cc(Cl)ccc12 [Hydroxychloroquine] + Nc1ncn([C@H]2C[C@H](O)[C@@H](CO)O2)c(=O)n1 [Decitabine] (partner 2 µM)
Outline: (§1)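 Medians of duplicate plates are given as relative viability. That measure is the nuclei count in treated wells divided by the count in vehicle wells. Counts were taken on 4× images of lung cancer cell lines in 1536-well plates, 5 days after pin-tool dosing the day after seeding with one drug alone or a fixed anchor-drug dose plus five library-drug doses (not always all listed) in √10 steps.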

[2] = compound: CCN(CCO)CCCC(C)Nc1ccnc2cc(Cl)ccc12 [Hydroxychloroquine] + C[C@@H](Oc1cc(-c2cnn(C3CCNCC3)c2)cnc1N)c1c(Cl)ccc(F)c1Cl [Crizotinib] (partner 1 µM)
Outline: as §1

[3] = compound: CCN(CCO)CCCC(C)Nc1ccnc2cc(Cl)ccc12 [Hydroxychloroquine] + N=C(N)NC(=N)NCCc1ccccc1 [Phenformin] (partner 250 µM)
Outline: as §1

[4] = compound: CCN(CCO)CCCC(C)Nc1ccnc2cc(Cl)ccc12 [Hydroxychloroquine] + CC1(C)CCC(c2ccc(Cl)cc2)=C(CN2CCN(c3ccc(C(=O)NS(=O)(=O)c4ccc(N[C@H](CCN5CCOCC5)CSc5ccccc5)c(S(=O)(=O)C(F)(F)F)c4)cc3)CC2)C1 [Navitoclax] (partner 0.5 µM)
Outline: as §1

Cell Line	relative viability ([1]; first compound 0.5 µM)	relative viability ([1]; first compound 1.581 µM)	relative viability ([1]; first compound 5 µM)	relative viability ([1]; first compound 15.81 µM)	relative viability ([1]; first compound 50 µM)	relative viability ([2]; first compound 0.5 µM)	relative viability ([2]; first compound 1.581 µM)	relative viability ([2]; first compound 5 µM)	relative viability ([2]; first compound 15.81 µM)	relative viability ([2]; first compound 50 µM)	relative viability ([3]; first compound 0.5 µM)	relative viability ([3]; first compound 1.581 µM)	relative viability ([3]; first compound 5 µM)	relative viability ([3]; first compound 15.81 µM)	relative viability ([3]; first compound 50 µM)	relative viability ([4]; first compound 0.5 µM)	relative viability ([4]; first compound 1.581 µM)	relative viability ([4]; first compound 5 µM)	relative viability ([4]; first compound 15.81 µM)	relative viability ([4]; first compound 50 µM)
NCI-H838	0.472	0.458	0.437	0.429	0.452	0.805	0.8	0.823	0.829	0.974	0.636	0.561	0.548	0.595	0.613	1.16	1.11	1.13	1.14	1.24
NCI-H1355	0.319	0.344	0.369	0.371	0.338	1.08	1.01	1.11	1.08	1.1	0.431	0.408	0.457	0.442	0.425	0.891	0.879	0.876	0.991	1.01
NCI-H1437	0.56	0.617	0.587	0.562	0.636	0.824	0.985	0.963	0.97	1.03	0.304	0.316	0.31	0.297	0.31	1.08	1.1	1.11	1.14	1.11
NCI-H1650	0.315	0.391	0.419	0.36	0.36	0.92	0.903	0.999	1.01	1.04	0.473	0.507	0.404	0.402	0.303	1.06	1.06	1.24	1.04	1.29
NCI-H1651	0.626	0.649	0.652	0.633	0.509	0.926	0.884	0.83	0.853	0.911	0.358	0.346	0.297	0.356	0.325	0.927	1.05	1.12	1.07	1.01
NCI-H1666	0.707	0.691	0.759	0.792	0.635	0.872	1.11	0.948	0.837	1.14	0.601	0.551	0.586	0.562	0.554	0.921	0.951	0.986	0.827	0.918
NCI-H1734	0.486	0.482	0.459	0.491	0.497	0.652	0.559	0.741	0.582	0.716	0.361	0.42	0.361	0.358	0.405	0.913	0.812	0.86	0.988	0.948
NCI-H1755	0.707	0.644	0.727	0.694	0.656	0.983	0.768	0.86	0.866	0.879	0.628	0.529	0.63	0.636	0.572	1.03	0.905	0.933	0.972	0.926
NCI-H1792	0.56	0.521	0.563	0.461	0.583	0.951	1.05	1.01	1.08	1.07	0.529	0.261	0.258	0.102	0.371	0.509	0.607	0.686	0.367	0.451
NCI-H1915	0.252	0.247	0.273	0.252	0.263	0.953	0.935	0.937	0.982	1.01	0.347	0.36	0.361	0.383	0.369	0.783	0.773	0.84	0.831	0.76
NCI-H1944	0.4	0.44	0.423	0.483	0.429	1.07	1.06	1.07	1.04	1.19	0.196	0.17	0.193	0.195	0.204	0.958	0.955	1.06	0.951	1.01
NCI-H1975	0.384	0.372	0.378	0.408	0.415	1.05	1.08	0.926	1.06	1.15	0.41	0.37	0.378	0.408	0.396	1.08	1.05	1.15	1.03	1.22
NCI-H1993	0.664	0.635	0.705	0.688	0.606	0.867	0.948	0.803	0.888	0.949	0.514	0.55	0.475	0.51	0.476	0.931	0.779	0.879	1.03	0.893
NCI-H2009	0.353	0.397	0.403	0.353	0.377	1.02	1	1.06	1.05	1.08	0.502	0.475	0.491	0.486	0.469	1.16	1.22	1.21	1.13	1.25
NCI-H2023	0.231	0.209	0.214	0.227	0.211	0.652	0.565	0.619	0.614	0.737	0.423	0.433	0.436	0.4	0.386	1.09	0.985	1.03	0.974	1.03
NCI-H2085	0.623	0.507	0.604	0.606	0.578	0.904	0.783	0.826	0.753	0.847	0.762	0.509	0.688	0.727	0.692	1.03	1.04	1.25	1.03	1.2
